Assay results: US11155577B2, “Thiol-ene based peptide stapling and uses thereof” (University of Utah Research Foundation, priority 2015, dated 2021)
One block for each substance: values may come before it. Bridge positions count the residues as written; N and C are the ends. Square brackets hold non-standard residues; d marks the D form. S5 = C=CCCC[C@](C)(N)C(=O)O; Ae = not defined here

Experiments:
[1] = system: p53 wild-type HCT-116 colorectal carcinoma cells; conditions: F. Bernal et al., Cancer Cell 2010; cited from earlier work
[2] = system: p53-null HCT-116 colorectal carcinoma cells; conditions: F. Bernal et al., Cancer Cell 2010; cited from earlier work
[3] = Circular dichroism (CD) evaluation of alpha helicity; format: physicochemical; conditions: in water, 25° C., 100 μM peptide
Method: All CD spectra were recorded on an AVIV Model 410 spectrophotometer (AVIV) in water in a 1 mm QS quartz cuvette (Stama) at 25° C. Wavelength scans were performed at 1-nm resolution with 1-s averaging time. Data from double scans were averaged, blank subtracted, and normalized to mean residue ellipticity by the following equation; [θ]=100×θ/C×l×(n−1), where C is concentration of protein in mM, l is path length in centimeters, and n is the number of residues in the protein. The concentrations of the protein samples used for CD experiments were 100 μM. The percentage helicity was calculated from the […] at 222 nm using helical models as previously reported (Y. H. Chen, J. T. Yang, K. H. Chau. Biochemistry 1974, 13, 3350-3359).

[4] = system: p53-null HCT-116 colorectal carcinoma cells; assay: Cell-viability assay (CellTiter Glo), HCT-116 p53 null; format: cell-based; conditions: 24-hour incubation
Method: (§1) Both HCT-116 cell lines, i.e., HCT-116 p53 wild-type and HCT-116 p53 null, were obtained from Dr. Trudy Oliver (University of Utah). Cell lines were cultured in 10% FBS media (DMEM, Pen/Strep). Briefly. 20,000 cells/well in 1% FBS media were seeded in 96-well plates. After 24 hours, stapled peptides with various concentrations were added to each well. After another 24-hour incubation, media were aspirated and CellTiter Glo reagent was added according to the protocol from Promega. Luminescence signal was measured by automatic plate reader (BioTek Synergy Neo).

[5] = system: p53 wild-type HCT-116 colorectal carcinoma cells; assay: Cell-viability assay (CellTiter Glo), HCT-116 p53 wild-type; format: cell-based; conditions: 24-hour incubation
Method: as §1

[6] = target: T1, p53-MDM2 interaction (Homo sapiens, UniProt Q00987); assay: ELISA assay for p53-MDM2 interactions; format: binding; conditions: 1-hour incubation with p53-MDM2 protein complexes
T1 construct: purchased Enzo Life Sciences
Method: The ELISA kit was purchased from Enzo Life Sciences (New York, USA). TMB substrate was purchased from Cell Signaling Technology (Massachusetts. USA). The assay was performed according to the manufacture's protocol. Briefly, p53 antibody was coated on a 96-well plate overnight. After the coating, peptides and p53-MDM2 protein complexes were diluted in assay buffer and added to the wells. After 1-hour incubation, all wells were washed and detection antibody was added. After another 1-hour incubation, SA-HRP was added and incubated for 30 minutes before TMB substrate was added. 1N HCl was then added to stop the color development and the signal was measure using automatic plate reader (BioTek Synergy Neo).

T1 sequence (Q00987 whole entry): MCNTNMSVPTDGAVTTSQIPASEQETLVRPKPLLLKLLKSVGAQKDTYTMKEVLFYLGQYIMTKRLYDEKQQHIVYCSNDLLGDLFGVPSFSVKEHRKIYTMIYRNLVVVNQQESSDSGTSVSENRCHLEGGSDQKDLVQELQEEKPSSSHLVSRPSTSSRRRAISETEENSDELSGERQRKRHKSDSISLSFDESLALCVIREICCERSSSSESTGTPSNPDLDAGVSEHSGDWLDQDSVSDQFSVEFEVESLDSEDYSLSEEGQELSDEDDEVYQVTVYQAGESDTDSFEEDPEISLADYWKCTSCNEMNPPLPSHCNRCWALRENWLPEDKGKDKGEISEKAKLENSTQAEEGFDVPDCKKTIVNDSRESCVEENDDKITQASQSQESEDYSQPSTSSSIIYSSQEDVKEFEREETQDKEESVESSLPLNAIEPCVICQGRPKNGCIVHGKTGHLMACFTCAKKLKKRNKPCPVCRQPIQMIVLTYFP

Substance: Ac-Gln-Ser-Gln-Gln-Thr-Phe-R8-Asn-Leu-Trp-Arg-Leu-Leu-S5-Gln-Asn-NH2 [Peptide 12]
induction of cell apoptosis in p53 wild-type cells (previously reported) [1]: selectively induces cell apoptosis in p53 wild-type cells
induction of cell apoptosis in p53 null cells (previously reported) [2]: not p53 null cells
alpha helicity (CD spectra) [3]: significant increase of alpha helicity compared to the unstapled peptide 13
induction of apoptosis / cell viability in p53 null cells [4]: not p53 null cells
induction of apoptosis / cell viability in p53 wild-type cells [5]: induction of apoptosis in p53 wild-type cells

Substance: Ac-Glu-Asn-Pro-GLu-S5-Ile-Leu-Asp-S5-His-Val-Gln-Arg-Val-Met-NH2 (Ac-ENPE[S5]ILD[S5]HVQRVM-NH2; staple 5-9; SMILES CC[C@H](C)[C@@H]1NC(=O)[C@@](C)(NC(=O)[C@H](CCC(=O)O)NC(=O)[C@@H]2CCCN2C(=O)[C@H](CC(N)=O)NC(=O)[C@H](CCC(=O)O)NC(C)=O)CCCC=CCCC[C@@](C)(C(=O)N[C@@H](Cc2c[nH]cn2)C(=O)N[C@H](C(=O)N[C@@H](CCC(N)=O)C(=O)N[C@@H](CCCNC(=N)N)C(=O)N[C@H](C(=O)N[C@@H](CCSC)C(N)=O)C(C)C)C(C)C)NC(=O)[C@H](CC(=O)O)NC(=O)[C@H](CC(C)C)NC1=O) [Peptide 9]
alpha helicity (CD spectra) [3]: strong alpha-helical characteristics

Substance: Ac-Glu-Asn-Pro-Glu-Cys-Ile-Leu-Asp-Cys-His-Val-Gln-Arg-Val-Met-NH2 (Ac-ENPECILDCHVQRVM-NH2; cysteine pairing not given here) [Peptide 10, unstapled axin homologue with 2 Cys residues]
alpha helicity (CD spectra) [3]: low alpha-helical property

blocking of the p53-MDM2 interaction [6]: did not block the p53-MDM2 interaction
Substance: Ae-Gln-Ser-Gln-Gln-Thr-Phe-Cys-Asn-Leu-Trp-Arg-Leu-Leu-Cys-Gln-Asn-NH2 (Ae-QSQQTFCNLWRLLCQN-NH2; not fully specified; printed as Ae-Gln-Ser-Gln-Gln-Thr-Phe-Cys-Asn-Leu-Trp-Arg-Leu-Leu-Cys-Gln-Asn-NH2; cysteine pairing not given here; reading uncertain) [Peptide 13, unstapled p53 homologue with 2 Cys residues]
